Data as given in patent US20180360964A1, “PHARMACEUTICAL COMPOSITION AND A METHOD FOR PRODUCING THEREOF” (priority 2017, published 2018).

Assays:
[1] = Interaction efficiency of drugs with apatite-based matrix (HPLC); type: physicochemical; set-up: concentration or dose not given beside the values; conditions: for Interaction efficiency (%) of each drug with apatite-based matrix: Table 1, mean±SD, triplicate
Description: Apatite-based matrix as prepared above was allowed to interact with three types of drugs including cyclophosphamide (Cyp), methotrexate (Mtx) and 5-fluorouracil (5-FU) to form complexes. The complexes were then centrifuged at 13,000 rpm for 15 min and supernatant was discarded without disturbing the pellet. 100 μL of media was added to pellet to form a suspension and the suspension was used to perform high performance liquid chromatography (HPLC) analysis to estimate the concentration of drugs that could be adsorbed to the apatite-based matrix and also to evaluate the interaction efficiency of drugs with apatite-based matrix. The concentration of the drugs present in the supernatant was calculated from the peak area, using the standard curves. Data were represented as interaction efficiency (%) of drugs with apatite-based matrix, calculated using the following formula: […]
Where [X]free drug and [X]CA-drug are the concentrations of free drug and drug-loaded apatite-based matrix in the supernatant calculated form the standard curves and [X]initial is the total concentration of drugs used to perform HPLC or the total concentration initially mixed for preparation of apatite-drug formulations. Each experiment was done in triplicate and shown as mean±SD.
(7) Ca^2+ and Sr^2+ Effects of Ca^2+ and Sr^2+ on apatite-based matrix formation were analysed by adding exogenous CaCl2 and SrCl2 in apatite-based matrix fabrication respectively, while keeping other salts being constant. The size of the apatite-based matrix formed with exogenous CaCl2 and SrCl2 were measured, followed by evaluation on the interaction efficiency (%) of apatite-based matrix with drugs which is indicated in Table 2.

[2] = Cellular uptake of Dox-loaded CA NPs and CMCA NPs; type: cell-based
From the text: Further, the interaction between CMCA NP and the drug i.e. doxorubicin (denoted briefly as Dox) was studied by comparing the size and binding affinity of CA NP and CMCA NP that were loaded with Dox. The positively charged DOX might bind electrostatically with negatively charged domains (rich in bicarbonate, phosphate or citrate) on CMCA NP and CA NP, causing the net charge of the DOX-loaded CMCA NPs and CA NPs more electropositive than that of the free NPs, as shown in FIGS. 28 (b) and (d). […] In addition, the evaluation on cellular uptake of Dox-loaded CA NPs and CMCA NPs was performed after 1 hour and 4 hours of treatment.

MCF7 cell line = assay: Time-dependent cellular uptake by HPLC; type: cell-based
Description: HPLC was performed to determine time-dependent cellular uptake (%) of pharmaceutical composition and also drug-loaded unmodified apatite-based matrix in MCF7 cell line. Apatite-based matrix was formulated with different Ca^2+ concentrations (7 mM, 8 mM and 9 mM) and 20 uM of drug. Free drug (20 uM) was used as control.

[3] = Concentration of detected drug accumulated in tumour after intravenous delivery; type: in vivo, mouse; conditions: gemcitabine accumulated in tumour, 4T1-induced breast tumour mice
Description: 4T1 cells were inoculated subcutaneously on the mammary pad of mice. […] The injections were intravenously administered twice within an interval of 3 days to a 4T1 cancer cells-induced syngeneic mouse model of breast cancer. Measurements on tumour volume at day 8, 10, 12, 14, 16, 18, 20 and 22 were taken. The concentration of detected drug in tumour were also measured, followed by observation on bio-distribution of drugs in each organ. Six mice per group were used and data were represented as mean±SD of tumour volume.

## O=c1[nH]cc(F)c(=O)[nH]1 [5-FU, 5-fluorouracil]
[1]
  Interaction efficiency (%) of each drug with apatite-based matrix: 0%
[1]; listed as 5-fluorouracil (5-FU)
  Interaction efficiency (%) of each drug with apatite-based matrix: did not show any affinity
[1]; matrix formed with CaCl2
  Interaction efficiency (%) of each drug with the apatite-based matrix: 0%
[1]; matrix formed with SrCl2
  Interaction efficiency (%) of each drug with the apatite-based matrix: 1.21 ± 0.56%

## O=P1(N(CCCl)CCCl)NCCCO1 (stereo not drawn) [Cyp, cyclophosphamide]
[1]
  Interaction efficiency (%) of each drug with apatite-based matrix: 13.10 ± 5.47%
[1]; matrix formed with CaCl2
  Interaction efficiency (%) of each drug with the apatite-based matrix: 13.10 ± 5.47%
[1]; matrix formed with SrCl2
  Interaction efficiency (%) of each drug with the apatite-based matrix: 11.19 ± 8.16%

## COc1cccc2c1C(=O)c1c(O)c3c(c(O)c1C2=O)C[C@@](O)(C(=O)CO)C[C@@H]3O[C@H]1C[C@H](N)[C@H](O)[C@H](C)O1 [DOX, doxorubicin]
[2]; DOX 1 μM
  % Cellular uptake 1 hour of treatment: 22.4% ± 1.73
  % Cellular uptake 4 hours of treatment: 31.71% ± 5.92
[2]; DOX 5 μM
  % Cellular uptake 1 hour of treatment: 24.75% ± 0.14
  % Cellular uptake 4 hours of treatment: 32.07% ± 0.82

## CC(C)(C#N)c1cc(Cn2cncn2)cc(C(C)(C)C#N)c1 [Free anastrozole, anastrozole]
MCF7 cell line; anastrozole 20 uM, 1 h
  cellular uptake (%): 18.5% ± 2.4
MCF7 cell line; anastrozole 20 uM, 4 h
  cellular uptake (%): 47.75% ± 2.3
MCF7 cell line; anastrozole 20 uM, 24 h
  cellular uptake (%): 89.5% ± 3

## Nc1ccn([C@@H]2O[C@H](CO)[C@@H](O)C2(F)F)c(=O)n1 [Free gemcitabine, gemcitabine]
MCF7 cell line; gemcitabine 20 uM, 1 h
  cellular uptake (%): 30.5% ± 1.2
MCF7 cell line; gemcitabine 20 uM, 4 h
  cellular uptake (%): 50.75% ± 2.3
MCF7 cell line; gemcitabine 20 uM, 24 h
  cellular uptake (%): 100%
[3]
  Detected Drug Concentration (ng/ml): 27,03333 ng/ml

## CN(Cc1cnc2nc(N)nc(N)c2n1)c1ccc(C(=O)N[C@@H](CCC(=O)O)C(=O)O)cc1 [Mtx, methotrexate]
[1]
  Interaction efficiency (%) of each drug with apatite-based matrix: 1.73 ± 0.85%
[1]; matrix formed with CaCl2
  Interaction efficiency (%) of each drug with the apatite-based matrix: 1.73 ± 0.85%
[1]; matrix formed with SrCl2
  Interaction efficiency (%) of each drug with the apatite-based matrix: 27.76 ± 5.62%
